Laboratory results taken from patent US6797731B2, “Resorcinol derivatives” (Pfizer Inc., priority 2000, dated 2004).

Target: T1, human tyrosinase (Homo sapiens, UniProt P14679)
T1 construct: endogenous in cells; host or cells: SKMEL 188 human melanoma cell line (lysate)
T1 sequence (P14679 19-529): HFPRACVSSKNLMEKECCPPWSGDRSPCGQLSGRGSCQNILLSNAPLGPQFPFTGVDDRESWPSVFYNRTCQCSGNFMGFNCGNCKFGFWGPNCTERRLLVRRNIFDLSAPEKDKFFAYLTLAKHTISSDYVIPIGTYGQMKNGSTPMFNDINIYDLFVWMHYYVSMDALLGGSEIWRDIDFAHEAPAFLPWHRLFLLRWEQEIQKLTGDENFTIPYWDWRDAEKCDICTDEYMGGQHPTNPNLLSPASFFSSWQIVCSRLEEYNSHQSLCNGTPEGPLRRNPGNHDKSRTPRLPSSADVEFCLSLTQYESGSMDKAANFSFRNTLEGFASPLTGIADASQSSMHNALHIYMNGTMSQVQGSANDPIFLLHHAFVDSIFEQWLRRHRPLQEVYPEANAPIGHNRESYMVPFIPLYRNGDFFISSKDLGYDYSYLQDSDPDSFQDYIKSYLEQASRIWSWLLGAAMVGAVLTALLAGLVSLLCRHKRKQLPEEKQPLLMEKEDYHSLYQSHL
Test: Tyrosinase (DOPA oxidase) assay using cell lysate
Format: biochemical
Details: SKMEL 188 cell lysates; L-DOPA 100 μg/ml; incubated 8 hrs; read at 405 nm
Protocol: 1. Tyrosinase (DOPA Oxidase) Assay Using Cell Lysate:
Human melanoma cell line, SKMEL 188 (licensed from Memorial Sloan-Kettering), is used in the cell lysate assay and the screen. In the assay, compounds and L-dihydroxyphenylalanine (L-DOPA) (100 μg/ml) are incubated with the cell lysates containing human tyrosinase for 8 hrs before the plates are read at 405 nm.

N[C@H](Cc1ccccc1)C(=O)O[C@H]1CC[C@H](c2ccc(O)cc2O)CC1 [Example 22, trans-4-(2,4-Dihydroxyphenyl)cyclohexyl (2R)-2-amino-3-phenylpropanoate]
IC50: ~2000 nM
